Results as given in paper PMC10525924, “Engineering and Purification of Microcin C7 Variants Resistant to Trypsin and Analysis of Their Biological Activity” (Antibiotics, 2023).
≈ marks a conversion by molar mass, not a printed value. Where a SMILES comes first, the peptide text is derived from it.

Key:
Yej^+rimL^− strain [1] = test: organism not typed; type: cell-based; conditions: for Diameters of the inhibition zones, Trypsin-Treated Group, Yej^+rimL^− / bacteriostatic activity after trypsin treatment, Yej^+rimL^−: supernatant treated with trypsin 50 μg/mL, 37 °C, 3 h; for Diameters of the inhibition zones, Trypsin-Treated Group, Yej^+rimL^−: pH 6.8, 37 °C 24 h; for Diameters of the inhibition zones, Trypsin-Treated Group, Yej^+rimL^− / bacteriostatic activity after trypsin treatment, Yej^+rimL^− / Diameters of the inhibition zones, Trypsin-Untreated Group, Yej^+rimL^−: agar diffusion; for Diameters of the inhibition zones, Trypsin-Treated Group, Yej^+rimL^− / Diameters of the inhibition zones, Trypsin-Untreated Group, Yej^+rimL^−: dash = no zone; for Diameters of the inhibition zones, Trypsin-Untreated Group, Yej^+rimL^−: 200 μL fermentation supernatant, 1 × 10^5 CFU/mL, 4 °C 1 h then 37 °C 24 h, chloramphenicol 100 μL of 0.25 μg/mL
From the text: To analyze the antimicrobial ability of the variants, we measured the inhibition zones of all 21 variants by the agar diffusion method. The peptide moiety of McC was recognized by a YejABEf-peptide transporter. The rimL contains an acetyltransferase domain homologous to MccE which can detoxify and provide resistance to McC [17]. The overexpression of the YejABEF gene cluster and rimL gene knockout made the strain hypersensitive to McC. Therefore, the Yej^+rimL^− strain was selected as the sensitive indicator bacterial strain.
(§1) The pH was adjusted to 6.8.
(§2) The fermentation supernatants and pure products were used to characterize the bacteriostatic effects of McC variants by the agar diffusion and microdilution methods. Yej^+rimL^− and E. coli K88 indicator bacteria were applied. The serotype of E. coli K88 was O149:K91, K88ac, a clinically isolated strain, and provided by the College of Veterinary Medicine, China Agricultural University. The indicated bacteria were diluted to 1 × 10^5 CFU/mL and added to plate medium cooled to 50 °C. Two hundred microliters of supernatants were added to each dish, and diffusion was performed at 4 °C for 1 h. After incubation at 37 °C for 24 h, the diameters of the inhibition zones were determined. One hundred microliters of 0.25 μg/mL chloramphenicol was used as a control. The MICs of the pure McC variants were determined by microdilution in a sterilized 96-well microplate. The McC variants were serially diluted 2 times in 96-well microplates with LB medium. The concentrations of the McC variants ranged from 0.125 to 100 µg/mL. Each well was inoculated with 10 μL of overnight bacterial culture at a concentration of 1.0 × 10^5 CFU/mL and incubated at 37 °C for 24 h. A microplate reader was used to automatically observe changes in absorbance at 600 nm in order to monitor bacterial growth. A positive control group (including inoculated medium) and a negative control group (with medium only) were included. The MIC was determined as the lowest concentration of McC variant that inhibited bacterial growth (preventing an increase in the absorbance reading). All tests were performed in triplicate.

E. coli K88 = test: microbe, parasite or virus in culture; type: cell-based; conditions: for Diameters of the inhibition zones, Trypsin-Untreated Group, K88: 200 μL fermentation supernatant, 1 × 10^5 CFU/mL, 4 °C 1 h then 37 °C 24 h, chloramphenicol 100 μL of 0.25 μg/mL
Description: as §1, §2

Yej^+rimL^− strain [2] = type: cell-based; conditions: HPLC-purified variants; microdilution in LB, 96-well; 0.125 to 100 µg/mL; 1.0 × 10^5 CFU/mL; 37 °C 24 h; absorbance 600 nm; triplicate
Description: To accurately characterize the bacteriostatic abilities of the variants, the MICs of the pure McC variants toward the McCsensitive strain Yej^+rimL^− were determined. The MICs of all variants were lower than that of wild-type McC. From smallest to largest MIC, the above five variants were in the following order: R2A, R2T, R2Q, R2S, and R2H. […] Although the diameter of the inhibitory zone of R2M was smaller than those of the above five variants, the bacteriostatic ability of R2M was second only to R2T/R2Q, and the MIC was 50 μg/mL.
as §2

[3] = Remaining amount by RP-HPLC after pepsin treatment; type: in vitro ADME; conditions: isolated enzyme pepsin; pepsin treated for 3 h; read-out RP-HPLC; Table S2
Description: (§3) To test whether the variants were tolerant to trypsin or other digestive enzymes, the amount of the remaining McC and its analogues remaining was determined by RP-HPLC after trypsin, pepsin, and chymotrypsin treated for 3 h (Table S2), and the inhibition zones of trypsin-treated variants were tested using the same method (Table 2).

[4] = Remaining amount by RP-HPLC after chymotrypsin treatment; type: in vitro ADME; conditions: isolated enzyme chymotrypsin; chymotrypsin treated for 3 h; read-out RP-HPLC; Table S2
Description: as §3

[5] = HPLC retention time according to hydrophobicity; type: physicochemical; conditions: chromatographic, C18 5 μm 9.4 × 250 mm; A 0.1% trichloroacetic acid, B 0.1% trichloroacetic acid with 90% acetonitrile; linear 5% B to 50% B; 1 mL/min; 35 °C; 280 nm; varies according to hydrophobicity
Description: To find the separation peaks of the variants, wildtype McC and blank control fermentation broth samples were tested by HPLC. The separation peaks with obvious differences (those with retention times of 11 min and 17 min) were purified and the antimicrobial activity was determined. […] Therefore, the molecular weight was further analyzed by mass spectrometry, and the separation peak at approximately 17 min was confirmed to be that of the desired purified McC. Since the mutations in this study involved only one amino acid and had few effects on the properties of the peptides, we predicted that the separation peaks of the variants should fluctuate around approximately 17 min according to their hydrophobicity. […] The purity of the purified variants was determined by HPLC to be greater than 80% (Table 3).
The lyophilized supernatants were dissolved in deionized water, filtered through 0.22 μm aqueous-phase filter membranes, and purified by high-performance liquid chromatography (HPLC, Agilent Technologies Inc., Palo Alto, CA, USA) with C18 column (5 μm 9.4 × 250 mm, Agilent Technologies Inc., Palo Alto, CA, USA). The mobile phase was composed of 0.1% (v/v) trichloroacetic acid (solvent A) and 0.1% (v/v) trichloroacetic acid with 90% (v/v) acetonitrile (solvent B). A linear gradient from 95% A/5% B to 50% A/50% B was used with a flow rate of 1 mL/min, a sample volume of 10 μL, a column temperature of 35 °C, and a detection wavelength of 280 nm. Electrospray ionization mass spectrometry (ESI-MS) was used to compare the McC variant masses with the expected masses. The relationships between the relative abundances and the mass-to-charge ratios (m/z) of the ions were determined to confirm the identities of the experimentally produced McC variants.

| Structure (SMILES) | zone of inhibition at 0.25 µg/mL (Yej^+rimL^− strain [1]; read-out: Diameters of the inhibition zones, Trypsin-Untreated Group, Yej^+rimL^−) [mm] | Diameters of the inhibition zones, Trypsin-Treated Group, Yej^+rimL^− (Yej^+rimL^− strain [1]) [mm] | zone of inhibition at 0.25 µg/mL (E. coli K88; Escherichia coli, K88, read-out: Diameters of the inhibition zones, Trypsin-Untreated Group, K88) [mm] | Diameters of the inhibition zones, Trypsin-Treated Group, K88 (E. coli K88; supernatant treated with trypsin 50 μg/mL, 37 °C, 3 h, pH 6.8, agar diffusion, 37 °C 24 h, dash = no zone) [mm] | bacteriostatic activity after trypsin treatment, Yej^+rimL^− (Yej^+rimL^− strain [1]) | Diameters of the inhibition zones, Trypsin-Untreated Group, Yej^+rimL^− (Yej^+rimL^− strain [1]) [mm] | MIC (Yej^+rimL^− strain [2]) [µg/mL] | remaining at 3 h [3] [%] | remaining at 3 h [4] [%] | Retention Time [5] [min] | Diameters of the inhibition zones, Trypsin-Untreated Group, K88 (E. coli K88; agar diffusion, dash = no zone) [mm] |
| --- | --- | --- | --- | --- | --- | --- | --- | --- | --- | --- | --- |
| O=C(N[C@H](CO)[C@H](O)c1ccc([N+](=O)[O-])cc1)C(Cl)Cl [Chloramphenicol, reference compound] | 23.4 | 20.96 | 23.6 | 22.79 |  |  |  |  |  |  |  |
| CSCC[C@H](NC=O)C(=O)N[C@@H](CC(=O)O)C(=O)N[C@H](C(=O)NCC(=O)N[C@@H](CC(N)=O)C(=O)N[C@@H](C)C(=O)N[C@@H](CC(=O)O)C(=O)NP(=O)(OCCCN)OC[C@H]1O[C@@H](n2cnc3c(N)ncnc32)[C@H](O)[C@@H]1O)[C@@H](C)O (stereo partly drawn) [R2D] (HELM PEPTIDE1{[O=C[*:2]].M.D.T.G.N.A.[NCCCOP(=O)(NC(=O)[C@H](CC(=O)O)N[*:1])OC[C@H]1O[C@@H](n2cnc3c(N)ncnc32)[C@H](O)[C@@H]1O]}$$$$V2.0) |  | 14.11 |  |  | exhibited antibacterial effects | 17.71 | >100 | 83.9 ± 1.42 | 42.4 ± 1.07 | 17.625 |  |
| CSCC[C@H](NC=O)C(=O)N[C@@H](Cc1ccccc1)C(=O)N[C@H](C(=O)NCC(=O)N[C@@H](CC(N)=O)C(=O)N[C@@H](C)C(=O)N[C@@H](CC(=O)O)C(=O)NP(=O)(OCCCN)OC[C@H]1O[C@@H](n2cnc3c(N)ncnc32)[C@H](O)[C@@H]1O)[C@@H](C)O (stereo partly drawn) [R2F] (HELM PEPTIDE1{[O=C[*:2]].M.F.T.G.N.A.[NCCCOP(=O)(NC(=O)[C@H](CC(=O)O)N[*:1])OC[C@H]1O[C@@H](n2cnc3c(N)ncnc32)[C@H](O)[C@@H]1O]}$$$$V2.0) |  | 10.95 |  |  |  | 13.05 |  | 82.3 ± 0.94 | 41.1 ± 0.98 |  | 14.34 |
| CSCC[C@H](NC=O)C(=O)NCC(=O)N[C@H](C(=O)NCC(=O)N[C@@H](CC(N)=O)C(=O)N[C@@H](C)C(=O)N[C@@H](CC(=O)O)C(=O)NP(=O)(OCCCN)OC[C@H]1O[C@@H](n2cnc3c(N)ncnc32)[C@H](O)[C@@H]1O)[C@@H](C)O (stereo partly drawn) [R2G] (HELM PEPTIDE1{[O=C[*:2]].M.G.T.G.N.A.[NCCCOP(=O)(NC(=O)[C@H](CC(=O)O)N[*:1])OC[C@H]1O[C@@H](n2cnc3c(N)ncnc32)[C@H](O)[C@@H]1O]}$$$$V2.0) |  | 14.15 |  |  | exhibited antibacterial effects | 18.86 | >100 | 85.89 ± 0.79 | 45.6 ± 1.31 | 17.253 |  |
| CSCC[C@H](NC=O)C(=O)N[C@@H](CCCCN)C(=O)N[C@H](C(=O)NCC(=O)N[C@@H](CC(N)=O)C(=O)N[C@@H](C)C(=O)N[C@@H](CC(=O)O)C(=O)NP(=O)(OCCCN)OC[C@H]1O[C@@H](n2cnc3c(N)ncnc32)[C@H](O)[C@@H]1O)[C@@H](C)O (stereo partly drawn) [R2K] (HELM PEPTIDE1{[O=C[*:2]].M.K.T.G.N.A.[NCCCOP(=O)(NC(=O)[C@H](CC(=O)O)N[*:1])OC[C@H]1O[C@@H](n2cnc3c(N)ncnc32)[C@H](O)[C@@H]1O]}$$$$V2.0) |  | 0 |  |  |  | 20.91 |  | 87.69 ± 0.68 | 41.4 ± 0.73 |  | 16.95 |
| CSCC[C@H](NC=O)C(=O)N[C@@H](CC(C)C)C(=O)N[C@H](C(=O)NCC(=O)N[C@@H](CC(N)=O)C(=O)N[C@@H](C)C(=O)N[C@@H](CC(=O)O)C(=O)NP(=O)(OCCCN)OC[C@H]1O[C@@H](n2cnc3c(N)ncnc32)[C@H](O)[C@@H]1O)[C@@H](C)O (stereo partly drawn) [R2L] (HELM PEPTIDE1{[O=C[*:2]].M.L.T.G.N.A.[NCCCOP(=O)(NC(=O)[C@H](CC(=O)O)N[*:1])OC[C@H]1O[C@@H](n2cnc3c(N)ncnc32)[C@H](O)[C@@H]1O]}$$$$V2.0) |  | 0 |  |  |  | 14.40 | >100 | 79.25 ± 0.62 | 39.2 ± 0.75 | 19.425 |  |
| CSCC[C@H](NC=O)C(=O)N[C@H](C(=O)N[C@H](C(=O)NCC(=O)N[C@@H](CC(N)=O)C(=O)N[C@@H](C)C(=O)N[C@@H](CC(=O)O)C(=O)NP(=O)(OCCCN)OC[C@H]1O[C@@H](n2cnc3c(N)ncnc32)[C@H](O)[C@@H]1O)[C@@H](C)O)C(C)C (stereo partly drawn) [R2V] (HELM PEPTIDE1{[O=C[*:2]].M.V.T.G.N.A.[NCCCOP(=O)(NC(=O)[C@H](CC(=O)O)N[*:1])OC[C@H]1O[C@@H](n2cnc3c(N)ncnc32)[C@H](O)[C@@H]1O]}$$$$V2.0) |  | 14.62 |  |  | exhibited antibacterial effects | 21.34 | 50 (≈ 44.6 µM) | 79 ± 1.24 | 39.1 ± 1.05 | 18.151 |  |
| CSCC[C@H](NC=O)C(=O)N[C@@H](Cc1ccc(O)cc1)C(=O)N[C@H](C(=O)NCC(=O)N[C@@H](CC(N)=O)C(=O)N[C@@H](C)C(=O)N[C@@H](CC(=O)O)C(=O)NP(=O)(OCCCN)OC[C@H]1O[C@@H](n2cnc3c(N)ncnc32)[C@H](O)[C@@H]1O)[C@@H](C)O (stereo partly drawn) [R2Y] (HELM PEPTIDE1{[O=C[*:2]].M.Y.T.G.N.A.[NCCCOP(=O)(NC(=O)[C@H](CC(=O)O)N[*:1])OC[C@H]1O[C@@H](n2cnc3c(N)ncnc32)[C@H](O)[C@@H]1O]}$$$$V2.0) |  | 14.93 |  |  | exhibited antibacterial effects | 18.87 | >100 | 85.22 ± 0.72 | 45.4 ± 1.18 | 18.591 |  |
